{"source": "paper PMC11267282", "about": "“Ultrashort‐Peptide‐Responsive Gene Switches for Regulation of Therapeutic Protein Expression in Mammalian Cells” (Advanced Science, 2024)", "key": {"[1]": {"test_system": "ComREXTRA in HEK-XIP cells", "assay": "SEAP expression by monoclonal cell line HEK-XIP / monoclonal clones", "assay_type": "cell-based, Streptococcus vestibularis", "conditions": "24 h; for SEAP level vs non-induced (significance): peptides from human sequence BLAST (Supplementary Figure 14c,d), n = 4; for SEAP induction in HEK-XIP cells (result in words): specificity / orthogonality screening, vs non-induced control", "description": "HEK‐293T or hMSC‐TERT cells were seeded in a 24‐well plate at a density of 5× 10^4 cells per well for 24 h. Then the cells were co‐transfected with 1000 ng of plasmid mixture containing pJH1611 (ITR‐OSTAT3‐SEAP‐P2A‐mINS‐pA:PRPBSA‐ECFP‐P2A‐PuroR‐pA‐ITR), pJH1618 (ITR‐PhCMV‐STAT3‐pA:PRPBSA‐ECFP‐P2A‐PuroR‐pA‐ITR), pJH1632 (ITR‐PSV40‐SP‐ComRK155R/F158Y/R186S/S222N/C17S‐EpoR‐IL‐6RB‐pA: PhCMV‐ZeoR‐P2A‐mRuby‐pA‐ITR) and the Sleeping Beauty transposase pJH42 (PhCMV‐SB100X‐pA)^[ [6], [44] ^] at the molar ratio of 2:10:50:6. After 24 h of transfection, the cells were transferred into the medium containing 0.5 µg ml^−1 puromycin, 5 µg ml^−1 blasticidin, and 100 µg ml^−1 of zeocin for antibiotic selection for three days. Then the polyclonal population of engineered cells was suspended in DMEM medium and separated by fluorescence‐activated cell sorting (FACS, BD FACS ARIA FUSION, BD Biosciences) using yPET (517/530), mRuby (558/605), and iRFP (690/713) fluorescence. The triple‐positive population was isolated into single cells and further cultured in 96‐well plates in medium containing the three selection antibiotics. After two weeks of clonal expansion, monoclonal cell lines were screened by the addition of XIP and the best‐in‐class cell line was selected for follow‐up experiments. Fluorescence‐based flow cytometry was performed to confirm triple‐positive fluorescence for the best‐in‐class cell line.\nSEAP reporter levels in cell culture supernatants were quantified using a colorimetric assay. In brief, 20 µl of cell culture supernatant was mixed with 80 µl of PBS buffer (cat. no. 14190144, ThermoFisher) and heat‐inactivated at 65 °C for 30 min. Then 80 µl of 2x SEAP assay buffer (20 mM homoarginine, 1 mM MgCl2, 21% diethanolamine, pH 9.8) was mixed with 20 µl of substrate solution, and 100 µl of the buffer‐substrate mixture was added to 100 µl of the diluted heat‐inactivated sample. Absorbance at 405 nm was recorded using a plate reader (Tecan Spark, Tecan Group Ltd., Switzerland) for 30 min at 37 °C to determine the SEAP levels."}, "[2]": {"test_system": "engineered mammalian cells", "assay": "Resazurin-based cell viability assay", "conditions": "50 and 250 µmol/L, 24 h, n = 4", "description": "Cells were incubated with resazurin (cat. no. R7017, Sigma‐Aldrich, USA) at a concentration of 50 µg ml^−1 for 2 h. Then fluorescence was assayed with a plate reader (Tecan Spark, Tecan Group Ltd., Switzerland) at excitation and emission wavelengths of 540 and 590 nm, respectively. The fluorescence intensity of non‐induced cells was set to 100%."}, "[3]": {"test_system": "CD4 / CD8 T cells of immunized mice", "assay": "T-cell response, intracellular cytokine staining", "assay_type": "in vivo, mouse", "conditions": "FACS intracellular cytokine staining, spleen and draining lymph nodes, n = 3", "description": "Mice were immunized at 2‐week intervals.\nIsolated lymphocytes from spleens and lymph nodes were placed in a U‐bottom 96‐well plate and resuspended in 100 µl complete RPMI‐1640 medium, which contains FBS (10% v/v), HEPES (pH 7.2∼7.5, 1% v/v, Gibco), penicillin/streptomycin (1% v/v, Gibco), sodium pyruvate (1% v/v, Gibco) and 2‐mercaptoethanol (0.1% v/v, Gibco). Cells were stimulated with 1 µM cognate peptides or with Cell Stimulation Cocktail (a cocktail of phorbol 12‐myristate 13‐acetate (PMA) and ionomycin, Invitrogen) as positive controls at 37 °C for 4 h, in the presence of 10 µM brefeldin A (MedChemExpress) to inhibit cytokine secretion. Next, the cells were washed with 150 µl FACS buffer, and centrifuged with 1,500 g for 2 min. The supernatant was discarded and the cells were blocked with anti‐CD16/32 antibody (1:100, 93, 101302, BioLegend) in 20 µl/well FACS buffer at 4 °C for 15 min. Then 20 µl/well antibody cocktail containing anti‐CD3ε (1:500, 17A2, 100306, BioLegend), anti‐CD4 (1:500, RM4‐5, 100526, BioLegend), anti‐CD8β (1:500, YTS256.7.7, 126606, BioLegend), and anti‐CD45 (1:500, S18009F, 157211, BioLegend) was added to the cell mixture for 20 min incubation at 4 °C. […] Gate margins were determined on the basis of isotype controls and fluorescence‐minus‐one controls."}, "C57BL/6 mice": {"test_system": "C57BL/6 mice", "assay": "Antibody analysis for peptide immunogenicity", "conditions": "s.c., three doses of 5 mg kg−1 at two-week intervals, with Freund's adjuvant, OD450, n = 3", "protocol": "Eight‐week‐old wild‐type male mice were immunized for peptide immunogenicity assessments. Briefly, peptide solution was premixed 1:1 with Freund's adjuvant in a total volume of 400 µl by thorough vigorous shaking. Then peptide/adjuvant mixes were injected subcutaneously in 30 min at a dose of 5 mg kg^−1. Mice were immunized at 2‐week intervals. Negative controls (mock‐immunized) were also included in the study. One week after the third dose of immunization, blood was sampled for antibody analysis.\nFor antibody analysis, the peptides were coated on the EIA/RIA plate (cat. no. 3590, Corning Inc. Life Sciences) in carbonate coating buffer (cat. no. CB01100, ThermoFisher) at 4 °C overnight. The next day the plate was blocked with 20% nonfat milk (cat. no. A0830,1000, AppliChem Panreac) for 24 h at 4 °C, and incubated with antibodies at the indicated dilution or at 37 °C for 1 h. Next, horseradish peroxidase‐linked anti‐mouse IgG (cat. no. LNA931V, GE Healthcare, USA) was added to the plate at a dilution of 1:1000 for 1 h at 37 °C. Between each step, the plate was washed with PBS at least three times. Then, 100 µl ultra TMB substrate solution (cat. no. 34028, ThermoFisher) was added to the plate at room temperature for 15 min, followed by the addition of 50 µl of stop solution (2 M H2SO4). The OD450 was measured by a plate reader (Tecan Spark, Tecan Group Ltd., Switzerland). Mouse anti‐HA antibody (cat. no. 901523, BioLegend, USA, 1:1000 dilution) was used as a positive control."}, "[4]": {"test_system": "T1D mice with HEK-XIP implants", "assay": "Serum inflammatory cytokines (ELISA)", "assay_type": "in vivo, mouse", "conditions": "four weeks after implantation, n = 5", "description": "The concentrations of interferon gamma (IFN‐γ), interleukin‐6 (IL‐6), and tumor necrosis factor alpha (TNF‐α) in mouse serum were assessed by the use of specific enzyme‐linked immunosorbent assay (ELISA) kits. IFN‐γ levels were analyzed using the IFN gamma mouse ELISA kit (cat. no. ab282874, Abcam), IL‐6 levels were determined with the IL‐6 mouse ELISA kit (cat. no. ab100712, Abcam), and TNF‐α levels were quantified utilizing the TNF alpha mouse ELISA kit (cat. no. BMS607HS, ThermoFisher). Freund's Complete Adjuvant (cat. no.: 344289, Sigma‐Aldrich) and lipopolysaccharides (cat. no.: L2630‐10MG, Sigma‐Aldrich) were utilized to induce cytokine production as positive controls. Blood samples were collected from mice treated with adjuvant and LPS 24 hours post‐treatment. The quantification of cytokines from these groups was conducted using the same ELISA kit."}, "[5]": {"test_system": "ComREXTRA (ComR-EpoR TM-IL-6RB)", "assay": "SEAP reporter assay, ComREXTRA-based synthetic receptor, transiently transfected HEK-293T", "assay_type": "cell-based, Streptococcus vestibularis", "conditions": "IL-6 50 ng/mL or XIP 50 μmol/L", "description": "Human embryonic kidney cells (HEK‐293T, ATCC: CRL‐11268), human telomerase‐immortalized mesenchymal stem cells (hMSC‐TERT),^[ [56] ^] human fibrosarcoma cells (HT‐1080, ATCC: CCL‐121), human cervical adenocarcinoma cells (HeLa, ATCC: CCL‐2), Chinese hamster ovary cells (CHO‐K1, ATCC: CCL‐61), baby hamster kidney cells (BHK‐21, ATCC: CCL‐10), and human liver cancer cells (Hep G2, ATCC: CRL‐11997) were cultured in Dulbecco's modified Eagle's medium (DMEM, cat. no. 52100–39, Thermo Fisher Scientific) containing 10% fetal bovine serum (FBS, cat. no. F7524, lot no. 022M3395, Sigma‐Aldrich) and 1% (v/v) streptomycin/penicillin (cat. no. L0022, Biowest). All mammalian cells were grown at 37 °C in a humidified atmosphere containing 5% CO2. For all transient transfections, 15 000 cells were seeded per well of a 96‐well plate (cat. no. 3599, Corning Inc. Life Sciences) overnight. Cells were transfected by mixing 100 ng of DNA and polyethyleneimine (PEI, 24765‐2, Polysciences) in a ratio of 1:4. […] The cell density was calculated using a cell counter (CellDrop BF Brightfield Cell Counter, DeNovix Inc.)\nSEAP reporter levels in cell culture supernatants were quantified using a colorimetric assay. […] Absorbance at 405 nm was recorded using a plate reader (Tecan Spark, Tecan Group Ltd., Switzerland) for 30 min at 37 °C to determine the SEAP levels."}}, "note": "“Also recorded” adds a separate entry of the source. Where a SMILES comes first, the peptide text is derived from it."}
{"molecule": "VPFFMIIC [Align1-9_VPFFMIIC, short peptide based on conserved human motif]", "values": [{"measurement": "SEAP level vs non-induced (significance)", "setting": "[1]", "value": "ns"}]}
{"molecule": "VPFYYY [Align8-9/17_VPFYYY, short peptide based on conserved human motif]", "values": [{"measurement": "SEAP level vs non-induced (significance)", "setting": "[1]", "value": "ns"}]}
{"molecule": "RPFFYYYY [Align3-4_RPFFYYYY, short peptide based on conserved human motif]", "values": [{"measurement": "SEAP level vs non-induced (significance)", "setting": "[1]", "value": "ns"}]}
{"molecule": "RPFFYY [Align10-12_RPFFYY, short peptide based on conserved human motif]", "values": [{"measurement": "SEAP level vs non-induced (significance)", "setting": "[1]", "value": "ns"}]}
{"molecule": "APFFYY [Align19_APFFYY, short peptide based on conserved human motif]", "values": [{"measurement": "SEAP level vs non-induced (significance)", "setting": "[1]", "value": "ns"}]}
{"molecule": "CC[C@H](C)[C@H](NC(=O)[C@H](CCSC)NC(=O)[C@H](Cc1ccccc1)NC(=O)[C@H](Cc1ccc(O)cc1)NC(=O)[C@@H]1CCCN1C(=O)[C@@H](N)C(C)C)C(=O)N[C@@H](Cc1ccc(O)cc1)C(=O)N[C@@H](Cc1ccc(O)cc1)C(=O)O", "note": "[RE10] (H-VPYFMIYY-OH)", "values": [{"measurement": "HEK-XIP cell viability", "setting": "[2]", "value": "ns"}]}
{"molecule": "CC(C)[C@H](N)C(=O)N1CCC[C@H]1C(=O)N[C@@H](Cc1ccccc1)C(=O)N[C@@H](Cc1ccccc1)C(=O)N[C@@H](Cc1ccc(O)cc1)C(=O)N[C@@H](Cc1ccc(O)cc1)C(=O)O", "note": "[ID3] (H-VPFFYY-OH)", "values": [{"measurement": "HEK-XIP cell viability", "setting": "[2]", "value": "ns"}, {"measurement": "Peptide-specific T-cell response", "setting": "[3]", "value": "no peptide‐specific T‐cell response was detected"}, {"measurement": "Antibody response", "setting": "C57BL/6 mice", "value": "no detectable antibodies’ response"}, {"measurement": "Antibody response", "setting": "C57BL/6 mice; listed as XIP_ID3", "value": "ns"}, {"measurement": "Serum IFN-γ (significance)", "setting": "[4]; vs non-induced", "value": "ns"}, {"measurement": "Serum TNF-α (significance)", "setting": "[4]; vs non-induced", "value": "ns"}, {"measurement": "Serum IL-6", "setting": "[4]; undetectable", "value": "Below 0.82 pg/ml"}]}
{"molecule": "VPFFYYYY [Align1-2_VPFFYYYY, short peptide based on conserved human motif]", "values": [{"measurement": "SEAP level vs non-induced (significance)", "setting": "[1]", "value": "ns"}]}
{"molecule": "C peptide [reference compound]", "values": [{"measurement": "SEAP induction in HEK-XIP cells (result in words)", "setting": "[1]", "value": "none of them displayed inducing activity"}]}
{"molecule": "DPFFYY [Align18_DPFFYY, short peptide based on conserved human motif]", "values": [{"measurement": "SEAP level vs non-induced (significance)", "setting": "[1]", "value": "ns"}]}
{"molecule": "VPYFYYY [Align15_VPYFYYY, short peptide based on conserved human motif]", "values": [{"measurement": "SEAP level vs non-induced (significance)", "setting": "[1]", "value": "ns"}]}
{"molecule": "VPFFMYY [ID1]", "values": [{"measurement": "SEAP induction in HEK-XIP cells (result in words)", "setting": "[1]", "value": "significant fold inductions"}]}
{"molecule": "PPFFYY [Align14/20_PPFFYY, short peptide based on conserved human motif]", "values": [{"measurement": "SEAP level vs non-induced (significance)", "setting": "[1]", "value": "ns"}]}
{"molecule": "APYFMIYY [RE11]", "values": [{"measurement": "HEK-XIP cell viability", "setting": "[2]", "value": "ns"}]}
{"molecule": "interleukin 6 [IL-6]", "values": [{"measurement": "SEAP induction of XIPEXTRA system", "setting": "[5]; n = 4", "value": "ns"}, {"measurement": "SEAP induction of XIPEXTRA system", "setting": "[5]; n = 4, listed as IL‐6", "value": "no apparent induction; also recorded: no detectable activation"}]}
{"molecule": "VPFYYYY [Align5-7_VPFYYYY, short peptide based on conserved human motif]", "values": [{"measurement": "SEAP level vs non-induced (significance)", "setting": "[1]", "value": "ns"}]}
{"molecule": "RAPKFMIY [Align14_RAPKFMIY, short peptide based on conserved human motif]", "values": [{"measurement": "SEAP level vs non-induced (significance)", "setting": "[1]", "value": "ns"}]}
{"molecule": "RPFHFMIY [Align15-20_RPFHFMIY, short peptide based on conserved human motif]", "values": [{"measurement": "SEAP level vs non-induced (significance)", "setting": "[1]", "value": "ns"}]}
{"molecule": "VPYFYY [Align16_VPYFYY, short peptide based on conserved human motif]", "values": [{"measurement": "SEAP level vs non-induced (significance)", "setting": "[1]", "value": "ns"}]}
{"molecule": "CSCC[C@H](NC(=O)[C@H](Cc1ccccc1)NC(=O)[C@H](Cc1ccc(O)cc1)NC(=O)[C@@H]1CCCN1C(=O)[C@H](C)N)C(=O)NCC(=O)N[C@@H](Cc1ccc(O)cc1)C(=O)N[C@@H](Cc1ccc(O)cc1)C(=O)O", "note": "[RE12] (H-APYFMGYY-OH)", "values": [{"measurement": "HEK-XIP cell viability", "setting": "[2]", "value": "ns"}]}
{"molecule": "LPFFMIL [Align10-13_LPFFMIL, short peptide based on conserved human motif]", "values": [{"measurement": "SEAP level vs non-induced (significance)", "setting": "[1]", "value": "ns"}]}
{"molecule": "BAM8‐22 [reference compound]", "values": [{"measurement": "SEAP induction in HEK-XIP cells (result in words)", "setting": "[1]", "value": "none of them displayed inducing activity"}]}
